Laboratory results: ChEMBL document CHEMBL1201862, “PubChem BioAssay data set” (2004)
Calls of active or inactive are those of the source.

Key:
Cytochrome P450 2D6 = Cytochrome P450 2D6 (Homo sapiens, UniProt P10635);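 also: CYP2D6 member of a cytochrome P450 panel assay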
Cytochrome P450 3A4 = Cytochrome P450 3A4 (Homo sapiens, UniProt P08684);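 also: CYP3A4 tested as one member of a cytochrome P450 panel screen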
[1] = biological target: Voltage-gated inwardly rectifying potassium channel KCNH2 (Homo sapiens, UniProt Q12809); details: Potency;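 also: confirmatory quantitative high-throughput screen measuring inhibition of hERG channel activity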
[2] = NIH-3T3 fibroblast cytotoxicity, dose response, cytotoxicity control, cell-based, fluorescence, Alamar Blue, secondary assay (AID 2327); type: functional;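 also: NIH-3T3 mouse fibroblasts cultured with fluconazole at 8 µg/mL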
[3] = fluconazole-exposed Candida albicans growth modulators – fluorescence, retest, confirmation (AID 2467); type: functional, cell-based
[4] = biological target: T1, Ubiquitin-conjugating enzyme E2 N (Homo sapiens, UniProt P61088); type: functional;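 also: Dose-response confirmation in a TR-FRET assay detecting UBC13-driven polyubiquitin chain formation, inhibition measured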
T1 sequence (P61088 whole entry): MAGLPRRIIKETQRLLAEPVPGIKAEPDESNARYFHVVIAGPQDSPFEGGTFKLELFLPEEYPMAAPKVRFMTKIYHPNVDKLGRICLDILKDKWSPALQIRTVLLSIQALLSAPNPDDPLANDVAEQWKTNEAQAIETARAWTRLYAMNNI

Cysteine protease ATG4B = Cysteine protease ATG4B (Homo sapiens, UniProt Q9Y4P1); type: functional;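 also: Fluorescence-based dose-response confirmation assay measuring inhibition of ATG4B activity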
Sequence of Cysteine protease ATG4B (Q9Y4P1 whole entry): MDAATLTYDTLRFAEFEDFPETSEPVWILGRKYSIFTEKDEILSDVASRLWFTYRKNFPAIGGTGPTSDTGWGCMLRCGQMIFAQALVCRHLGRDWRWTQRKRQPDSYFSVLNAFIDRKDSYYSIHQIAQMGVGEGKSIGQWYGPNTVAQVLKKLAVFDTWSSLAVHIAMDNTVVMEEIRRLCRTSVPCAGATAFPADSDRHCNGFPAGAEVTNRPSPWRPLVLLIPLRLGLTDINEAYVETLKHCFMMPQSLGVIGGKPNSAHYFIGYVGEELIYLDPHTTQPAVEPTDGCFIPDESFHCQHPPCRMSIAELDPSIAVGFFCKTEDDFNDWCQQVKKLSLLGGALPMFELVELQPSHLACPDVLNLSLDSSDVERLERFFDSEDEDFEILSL

Phospholipase A2 = Phospholipase A2 (Homo sapiens, UniProt P04054); type: functional;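 also: confirmatory dose-response counterscreen on phospholipase A2, testing hits that came from an ultra-high-throughput screen for ATG4B inhibitors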
Sequence of Phospholipase A2 (P04054 whole entry): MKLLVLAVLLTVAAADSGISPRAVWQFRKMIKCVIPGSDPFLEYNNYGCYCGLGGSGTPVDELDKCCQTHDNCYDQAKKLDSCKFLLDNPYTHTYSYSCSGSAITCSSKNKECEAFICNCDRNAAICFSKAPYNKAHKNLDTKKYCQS

[5] = reduction of Shn3 3'UTR-driven luciferase in osteoblasts – cell-based, Clone20 osteoblasts, firefly luciferase, cherry-picked, dose response (AID 624132); type: functional;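 also: firefly luciferase luminescence from reporter carrying the Shn3 3'UTR in osteoblasts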
[6] = loss of viability in HepG2 cells – cell-based, CellTiter-Glo, cherry-picked, cytotoxicity control for Shn3 inhibitor project, dose response (AID 624134); type: functional
[7] = non-specific 3'UTR reporter inhibition in Clone20-Shn3RL – cell-based, Renilla luciferase, cherry-picked, counter-screen for Shn3 inhibitor project, dose response (AID 624133); type: functional
[8] = HEK-293T cell viability reduction – luminescence, B-cell screen hits, cytotoxicity control for BCR NF-kB inhibitor project, dose response (AID 489021); type: functional, cell-based;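 also: HEK-293T cells carrying an NF-kB luciferase reporter; cells exposed to compound for about 14 hours before viability readout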
HEK293 = assay: HEK293T cell viability loss, resazurin readout – resazurin fluorescence, cytotoxicity control for NF-kB activator project, SAR follow-up (AID 493251); type: functional, cell-based; details: Homo sapiens
[9] = biological target: T2, Heat shock factor protein 1 (Mus musculus, UniProt P38532); assay: decrease of HSF1-responsive luciferase luminescence – cell-based, NIH3T3, dose retest, confirmation (AID 2382); type: functional;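 also: NIH3T3 fibroblasts with HSF1-driven luciferase reporter stressed by proteasome inhibitor MG132; luminescence from HSF1-driven luciferase expression after 8 hours of MG132 stress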
T2 sequence (P38532 whole entry): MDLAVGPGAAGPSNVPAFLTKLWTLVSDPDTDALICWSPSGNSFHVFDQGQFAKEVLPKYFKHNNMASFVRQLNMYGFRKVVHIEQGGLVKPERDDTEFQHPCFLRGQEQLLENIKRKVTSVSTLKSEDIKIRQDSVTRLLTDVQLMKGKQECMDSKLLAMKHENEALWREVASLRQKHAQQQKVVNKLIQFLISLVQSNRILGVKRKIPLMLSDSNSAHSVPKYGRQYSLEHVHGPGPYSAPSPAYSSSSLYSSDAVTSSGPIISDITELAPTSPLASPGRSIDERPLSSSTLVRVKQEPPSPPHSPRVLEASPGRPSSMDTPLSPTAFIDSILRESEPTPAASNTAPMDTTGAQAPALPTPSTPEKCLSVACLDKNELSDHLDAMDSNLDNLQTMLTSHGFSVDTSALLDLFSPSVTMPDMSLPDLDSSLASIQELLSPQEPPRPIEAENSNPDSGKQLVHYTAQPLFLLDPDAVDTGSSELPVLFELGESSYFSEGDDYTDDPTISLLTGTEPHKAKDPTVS

[10] = biological target: T3, Microphthalmia-associated transcription factor (Homo sapiens, UniProt O75030); assay: reducers of TRPM1 reporter luminescence, concentration series – cell-based, SK-MEL-5, cherry-picked, set 3, MITF inhibitor project, dose response (AID 493073); type: functional;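 also: SK-MEL-5 melanoma cells with luciferase driven by the MITF target TRPM1 promoter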
T3 sequence (O75030 whole entry): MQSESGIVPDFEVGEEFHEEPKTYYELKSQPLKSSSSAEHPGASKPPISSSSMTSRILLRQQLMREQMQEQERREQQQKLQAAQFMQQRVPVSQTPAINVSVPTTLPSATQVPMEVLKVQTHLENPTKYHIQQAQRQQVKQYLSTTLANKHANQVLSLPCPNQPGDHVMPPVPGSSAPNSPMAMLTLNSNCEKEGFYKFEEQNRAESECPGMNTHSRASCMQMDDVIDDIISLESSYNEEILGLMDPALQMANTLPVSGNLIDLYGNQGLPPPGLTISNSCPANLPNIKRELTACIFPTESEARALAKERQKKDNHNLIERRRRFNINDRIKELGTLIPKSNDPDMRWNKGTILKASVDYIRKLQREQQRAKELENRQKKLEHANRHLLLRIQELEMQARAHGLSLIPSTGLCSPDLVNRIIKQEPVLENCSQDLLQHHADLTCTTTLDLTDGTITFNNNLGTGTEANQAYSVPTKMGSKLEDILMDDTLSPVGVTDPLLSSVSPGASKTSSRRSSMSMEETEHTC

INS1 = assay: INS-1E survival protection against cytokine death – cell-based, luminescence, retest, dose response (AID 449756); type: functional; details: Rattus norvegicus;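 also: cell death triggered by IL-1 beta plus TNF-alpha plus IFN-gamma mixture; protective hits raise ATP signal compared with cytokine alone wells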
A-375 = assay: proliferation inhibition in MITF-low A375 cells – cell-based, cherry-pick samples, set 2, counter-screen for MITF modulator project, dose response (AID 540335); type: functional; details: Homo sapiens
Paired box protein Pax-8 = Paired box protein Pax-8 (Homo sapiens, UniProt Q06710); assay: PAX8 transcriptional activity inhibition in RMG-I – RMG-I cells, luciferase, cherry-pick, dose response (AID 687027); type: functional, cell-based;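 also: luciferase reporter driven by Pax8 target thyroperoxidase promoter measured by SteadyGlo luminescence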
Sequence of Paired box protein Pax-8 (Q06710 whole entry): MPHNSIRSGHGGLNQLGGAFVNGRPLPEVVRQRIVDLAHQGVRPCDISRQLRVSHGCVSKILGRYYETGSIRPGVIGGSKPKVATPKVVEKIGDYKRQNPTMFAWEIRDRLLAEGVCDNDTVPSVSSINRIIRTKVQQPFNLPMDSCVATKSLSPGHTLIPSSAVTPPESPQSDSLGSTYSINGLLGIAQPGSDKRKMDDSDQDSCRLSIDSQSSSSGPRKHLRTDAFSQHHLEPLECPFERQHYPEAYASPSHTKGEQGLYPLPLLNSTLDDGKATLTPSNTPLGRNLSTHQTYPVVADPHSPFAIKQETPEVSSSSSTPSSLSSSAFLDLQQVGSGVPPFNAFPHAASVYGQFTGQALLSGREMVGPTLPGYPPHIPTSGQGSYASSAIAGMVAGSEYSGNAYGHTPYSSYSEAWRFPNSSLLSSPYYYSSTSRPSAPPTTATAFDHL

[11] = general cell-killing toxicity readout – plate reader, dry powder samples, cytotoxicity control for PAX8 inhibitor project, dose response (AID 743021); type: functional, cell-based
[12] = luciferase reporter signal suppression in cells – H4 neuroglioma cells, luminescence, dose response (AID 1990); type: functional, cell-based
[13] = Luminescence Cell-Based Dose Response HTS to Identify Inhibitors of 5'UTR Stem-Loop Driven Prion Protein mRNA Translation in H4 Neuroglioblastoma Cells. [Related pubchem assays: 1827 (Project Summary), 1813 (Primary HTS)]; type: functional
[14] = biological target: Luciferin 4-monooxygenase (Photinus pyralis, UniProt P08659); assay: inhibition of purified Photinus pyralis luciferase – biochemical, luminescence, dose response (AID 1891)
Sequence of Luciferin 4-monooxygenase (P08659 whole entry): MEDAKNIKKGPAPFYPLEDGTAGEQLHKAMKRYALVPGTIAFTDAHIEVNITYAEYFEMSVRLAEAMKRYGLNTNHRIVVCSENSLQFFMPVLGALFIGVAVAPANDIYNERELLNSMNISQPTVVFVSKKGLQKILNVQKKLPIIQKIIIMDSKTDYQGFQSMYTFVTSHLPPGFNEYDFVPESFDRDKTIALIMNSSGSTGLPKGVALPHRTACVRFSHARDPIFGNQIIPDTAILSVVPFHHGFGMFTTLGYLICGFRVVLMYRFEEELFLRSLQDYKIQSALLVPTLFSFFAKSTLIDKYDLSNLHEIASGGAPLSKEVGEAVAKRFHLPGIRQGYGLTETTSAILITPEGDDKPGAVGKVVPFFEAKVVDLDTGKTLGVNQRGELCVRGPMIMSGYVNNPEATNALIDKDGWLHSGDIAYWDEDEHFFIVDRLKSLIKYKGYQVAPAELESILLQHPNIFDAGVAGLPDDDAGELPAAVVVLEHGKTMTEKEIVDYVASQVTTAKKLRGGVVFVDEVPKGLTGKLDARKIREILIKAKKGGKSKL

[15] = Luminescence Cell-Based Dose Confirmation HTS to Identify Inhibitors of Platelet Dense Granule Release. [Related pubchem assays: 1663 (Primary HTS), 1678 (Summary of Project)]; type: functional
Hexokinase-1 = biological target: T4, Hexokinase-1 (Homo sapiens, UniProt P19367); assay: hexokinase 1 activity inhibitors, potency – biochemical, set 2, resazurin fluorescence coupled readout, selectivity assay for HKDC1 inhibitor project, SAR follow-up (AID 588356); type: functional
T4 sequence (P19367 whole entry): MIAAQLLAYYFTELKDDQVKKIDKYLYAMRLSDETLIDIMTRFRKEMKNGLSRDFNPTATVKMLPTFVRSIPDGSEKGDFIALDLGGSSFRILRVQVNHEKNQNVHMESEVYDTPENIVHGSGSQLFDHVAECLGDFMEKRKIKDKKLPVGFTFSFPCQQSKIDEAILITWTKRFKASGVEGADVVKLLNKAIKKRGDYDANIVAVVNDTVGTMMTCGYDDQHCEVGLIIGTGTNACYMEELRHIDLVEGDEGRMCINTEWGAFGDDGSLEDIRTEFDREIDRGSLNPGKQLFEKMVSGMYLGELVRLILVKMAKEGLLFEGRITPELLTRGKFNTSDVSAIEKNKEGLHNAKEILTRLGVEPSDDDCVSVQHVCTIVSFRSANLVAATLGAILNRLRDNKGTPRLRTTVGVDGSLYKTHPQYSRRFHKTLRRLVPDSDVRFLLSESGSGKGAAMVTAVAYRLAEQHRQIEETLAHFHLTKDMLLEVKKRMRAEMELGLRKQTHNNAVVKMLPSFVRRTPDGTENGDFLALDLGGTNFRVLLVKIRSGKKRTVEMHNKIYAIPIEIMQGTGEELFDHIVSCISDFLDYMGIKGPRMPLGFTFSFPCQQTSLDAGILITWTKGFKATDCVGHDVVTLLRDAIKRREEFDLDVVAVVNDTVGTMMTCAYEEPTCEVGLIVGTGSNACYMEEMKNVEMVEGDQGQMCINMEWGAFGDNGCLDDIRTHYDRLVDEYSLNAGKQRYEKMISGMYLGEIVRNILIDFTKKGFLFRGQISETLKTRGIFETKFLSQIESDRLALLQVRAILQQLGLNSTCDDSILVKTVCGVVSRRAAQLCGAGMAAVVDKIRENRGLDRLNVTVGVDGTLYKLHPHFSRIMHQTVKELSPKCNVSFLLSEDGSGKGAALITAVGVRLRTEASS

Hexokinase HKDC1 = biological target: T5, Hexokinase HKDC1 (Homo sapiens, UniProt Q2TB90); assay: analog inhibition of human HKDC1 activity – biochemical, set 2, SAR follow-up (AID 588355); type: functional
T5 sequence (Q2TB90 whole entry): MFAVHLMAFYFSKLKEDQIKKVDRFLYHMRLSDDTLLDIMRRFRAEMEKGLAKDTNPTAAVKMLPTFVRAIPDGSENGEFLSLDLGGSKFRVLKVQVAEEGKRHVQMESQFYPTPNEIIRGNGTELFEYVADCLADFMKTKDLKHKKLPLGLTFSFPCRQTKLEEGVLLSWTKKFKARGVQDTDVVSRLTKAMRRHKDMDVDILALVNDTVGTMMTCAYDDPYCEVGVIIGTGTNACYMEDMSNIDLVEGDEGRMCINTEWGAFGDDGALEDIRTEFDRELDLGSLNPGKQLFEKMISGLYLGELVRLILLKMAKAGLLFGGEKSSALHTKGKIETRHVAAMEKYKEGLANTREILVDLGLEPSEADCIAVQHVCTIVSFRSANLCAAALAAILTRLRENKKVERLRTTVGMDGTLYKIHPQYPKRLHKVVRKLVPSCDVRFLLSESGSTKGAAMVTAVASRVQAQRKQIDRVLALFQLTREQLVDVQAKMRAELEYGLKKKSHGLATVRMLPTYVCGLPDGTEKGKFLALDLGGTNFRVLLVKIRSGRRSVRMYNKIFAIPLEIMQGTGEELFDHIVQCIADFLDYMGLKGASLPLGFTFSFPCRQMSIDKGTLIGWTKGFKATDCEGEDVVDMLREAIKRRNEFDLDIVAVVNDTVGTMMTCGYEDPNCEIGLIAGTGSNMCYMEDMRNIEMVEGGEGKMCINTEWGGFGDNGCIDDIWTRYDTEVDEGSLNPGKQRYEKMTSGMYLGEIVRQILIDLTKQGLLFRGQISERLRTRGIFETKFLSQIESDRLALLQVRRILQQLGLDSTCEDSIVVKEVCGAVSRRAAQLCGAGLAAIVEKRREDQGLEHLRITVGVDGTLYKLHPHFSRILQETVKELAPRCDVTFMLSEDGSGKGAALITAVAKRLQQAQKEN

[16] = biological target: Induced myeloid leukemia cell differentiation protein Mcl-1 (Homo sapiens, UniProt Q07820); type: functional
Sequence of Induced myeloid leukemia cell differentiation protein Mcl-1 (Q07820 whole entry): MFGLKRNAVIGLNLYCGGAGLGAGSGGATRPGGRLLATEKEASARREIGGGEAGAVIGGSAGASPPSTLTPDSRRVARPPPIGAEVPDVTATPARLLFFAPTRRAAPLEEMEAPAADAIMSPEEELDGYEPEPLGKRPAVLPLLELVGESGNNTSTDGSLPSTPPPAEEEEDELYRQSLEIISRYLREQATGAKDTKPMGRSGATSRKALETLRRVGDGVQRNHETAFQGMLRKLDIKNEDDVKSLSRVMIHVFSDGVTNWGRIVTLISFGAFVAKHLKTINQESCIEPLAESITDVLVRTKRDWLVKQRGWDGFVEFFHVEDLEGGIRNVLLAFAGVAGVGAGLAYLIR

[17] = biological target: Dual specificity protein kinase CLK1 (Homo sapiens, UniProt P49759); assay: inhibition of human CLK1 activity – biochemical, cherry-picked samples, selectivity assay for Dyrk1A inhibitor project, dose response (AID 588811)
Sequence of Dual specificity protein kinase CLK1 (P49759 whole entry): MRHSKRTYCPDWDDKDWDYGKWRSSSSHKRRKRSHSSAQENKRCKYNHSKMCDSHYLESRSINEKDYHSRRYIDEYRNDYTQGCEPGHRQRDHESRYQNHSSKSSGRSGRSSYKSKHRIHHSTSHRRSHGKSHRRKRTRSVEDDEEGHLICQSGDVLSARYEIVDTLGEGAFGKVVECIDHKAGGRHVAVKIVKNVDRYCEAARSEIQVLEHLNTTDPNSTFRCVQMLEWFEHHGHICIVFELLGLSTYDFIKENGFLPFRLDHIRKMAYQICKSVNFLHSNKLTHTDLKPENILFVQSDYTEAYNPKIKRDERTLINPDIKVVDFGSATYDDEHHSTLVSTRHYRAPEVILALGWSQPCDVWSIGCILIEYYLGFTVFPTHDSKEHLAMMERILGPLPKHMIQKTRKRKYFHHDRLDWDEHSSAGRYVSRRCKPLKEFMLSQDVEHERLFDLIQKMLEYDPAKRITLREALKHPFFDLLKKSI

[18] = biological target: Dual specificity tyrosine-phosphorylation-regulated kinase 1A (Rattus norvegicus, UniProt Q63470); type: biochemical, Homo sapiens
CHO = CHO cell viability loss, potency – luminescence, cytotoxicity control for TLR9-MyD88 binding inhibitor project, dose response (AID 588339); type: functional, cell-based, hamster; details: Cricetulus griseus;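 also: CHO cells stably coexpressing TLR9 and MyD88 fusions from primary screen; compound exposure lasted 48 hours before viability readout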
[19] = biological target: Tyrosyl-DNA phosphodiesterase 2 (Homo sapiens, UniProt O95551); assay: potency against TDP2 phosphodiesterase activity – biochemical, epi absorbance, IC50, dose response (AID 743297)
Sequence of Tyrosyl-DNA phosphodiesterase 2 (O95551 whole entry): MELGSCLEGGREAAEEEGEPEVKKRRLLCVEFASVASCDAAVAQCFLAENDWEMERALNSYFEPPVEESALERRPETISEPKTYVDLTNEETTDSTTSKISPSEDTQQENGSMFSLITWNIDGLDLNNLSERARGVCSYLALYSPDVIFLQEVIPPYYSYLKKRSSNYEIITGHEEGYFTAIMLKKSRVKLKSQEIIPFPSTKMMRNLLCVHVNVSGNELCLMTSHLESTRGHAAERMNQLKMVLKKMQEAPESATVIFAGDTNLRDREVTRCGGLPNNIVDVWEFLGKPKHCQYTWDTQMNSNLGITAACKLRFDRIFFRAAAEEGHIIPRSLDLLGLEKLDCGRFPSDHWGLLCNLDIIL

[20] = biological target: Short transient receptor potential channel 6 (Mus musculus, UniProt Q61143); assay: mouse TRPC6 channel blockers, concentration series – HEK293 cells, membrane potential dye, IC50, selectivity assay for selective TRPC4 inhibitor project, dose response (AID 492987); type: functional, cell-based
Sequence of Short transient receptor potential channel 6 (Q61143 whole entry): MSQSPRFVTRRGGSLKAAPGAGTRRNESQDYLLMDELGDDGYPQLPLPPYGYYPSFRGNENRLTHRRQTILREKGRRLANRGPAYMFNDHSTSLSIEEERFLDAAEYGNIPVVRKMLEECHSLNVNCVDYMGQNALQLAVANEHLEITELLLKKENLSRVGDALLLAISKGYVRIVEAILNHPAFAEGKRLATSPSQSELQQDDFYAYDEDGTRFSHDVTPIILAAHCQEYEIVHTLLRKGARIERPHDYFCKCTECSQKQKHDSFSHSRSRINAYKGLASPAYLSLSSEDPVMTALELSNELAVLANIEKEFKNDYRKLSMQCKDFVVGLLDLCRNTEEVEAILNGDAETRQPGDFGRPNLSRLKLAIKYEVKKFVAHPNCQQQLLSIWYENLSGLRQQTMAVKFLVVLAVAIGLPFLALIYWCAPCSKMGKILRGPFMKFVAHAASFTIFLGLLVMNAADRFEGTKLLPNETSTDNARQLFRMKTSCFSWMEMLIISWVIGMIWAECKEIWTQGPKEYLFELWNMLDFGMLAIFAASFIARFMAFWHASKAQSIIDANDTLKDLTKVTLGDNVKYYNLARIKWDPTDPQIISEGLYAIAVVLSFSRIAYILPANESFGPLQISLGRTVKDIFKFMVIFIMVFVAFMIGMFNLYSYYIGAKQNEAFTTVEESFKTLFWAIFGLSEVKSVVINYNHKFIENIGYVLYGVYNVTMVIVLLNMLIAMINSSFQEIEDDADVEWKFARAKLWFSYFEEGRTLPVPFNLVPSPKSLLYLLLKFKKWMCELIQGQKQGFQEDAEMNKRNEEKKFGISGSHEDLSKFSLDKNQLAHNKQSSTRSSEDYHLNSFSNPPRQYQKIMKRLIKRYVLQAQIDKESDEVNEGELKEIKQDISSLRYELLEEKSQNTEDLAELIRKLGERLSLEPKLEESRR

Sequence of Cytochrome P450 2D6 (P10635 whole entry): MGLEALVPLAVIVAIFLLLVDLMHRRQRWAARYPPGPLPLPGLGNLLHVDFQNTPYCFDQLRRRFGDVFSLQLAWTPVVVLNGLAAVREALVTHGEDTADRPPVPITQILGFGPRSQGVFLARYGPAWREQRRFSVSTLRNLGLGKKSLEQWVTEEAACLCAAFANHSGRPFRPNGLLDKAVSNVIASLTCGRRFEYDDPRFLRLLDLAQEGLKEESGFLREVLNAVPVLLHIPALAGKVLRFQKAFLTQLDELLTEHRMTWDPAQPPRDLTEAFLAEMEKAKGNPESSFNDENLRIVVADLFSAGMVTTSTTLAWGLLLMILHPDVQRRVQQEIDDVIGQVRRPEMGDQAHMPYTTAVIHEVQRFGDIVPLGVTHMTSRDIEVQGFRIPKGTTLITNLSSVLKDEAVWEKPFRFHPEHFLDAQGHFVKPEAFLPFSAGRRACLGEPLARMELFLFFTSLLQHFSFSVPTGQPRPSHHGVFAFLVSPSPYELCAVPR
Sequence of Cytochrome P450 3A4 (P08684 whole entry): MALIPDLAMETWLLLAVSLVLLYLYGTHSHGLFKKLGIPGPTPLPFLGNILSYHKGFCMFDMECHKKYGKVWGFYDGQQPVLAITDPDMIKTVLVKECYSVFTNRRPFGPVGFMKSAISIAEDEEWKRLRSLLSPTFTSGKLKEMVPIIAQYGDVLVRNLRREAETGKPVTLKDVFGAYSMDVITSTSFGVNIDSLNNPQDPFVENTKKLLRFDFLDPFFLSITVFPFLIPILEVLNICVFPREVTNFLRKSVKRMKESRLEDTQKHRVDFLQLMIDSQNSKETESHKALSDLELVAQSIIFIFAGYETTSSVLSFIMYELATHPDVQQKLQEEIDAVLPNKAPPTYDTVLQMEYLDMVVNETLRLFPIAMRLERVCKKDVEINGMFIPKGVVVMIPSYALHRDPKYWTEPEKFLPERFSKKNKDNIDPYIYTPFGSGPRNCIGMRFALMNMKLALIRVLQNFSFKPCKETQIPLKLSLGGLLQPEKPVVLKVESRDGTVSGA

NC(=O)CNCCC(c1ccccc1)c1ccccc1
AC50 (Cytochrome P450 2D6): 20 µM (inconclusive)
AC50 (Cytochrome P450 3A4): 2 µM (inconclusive)
AC50 [1]: 15.8 µM (inconclusive)

Cc1c(CCOC(=O)C23CC4(C)CC(C)(CC(C)(C4)C2)C3)sc[n+]1CC(=O)c1ccccc1
EC50 [2]: > 150 µM (inactive)
EC50 [3]: > 38 µM (not active)
IC50 [4]: > 20 µM (inactive)
IC50 (Cysteine protease ATG4B): 8.57 µM (active)
IC50 (Phospholipase A2): 8.77 µM (active)
AC50 [5]: 5.84 µM (active)
AC50 [6]: 23.6 µM (active)
AC50 [7]: 7.21 µM (active)

COc1ccc(-c2nc(CSCC(=O)NCc3ccco3)c(C)o2)cc1
IC50 [8]: > 80 µM (inactive)
IC50 (HEK293): 67.1 µM (inactive)

O=C(CCl)N(c1ccccc1)C1CCCCC1
EC50 [9]: 4.98 µM (active)
AC50 [10]: 4.51 µM (active)
AC50 (INS1): 4.88 µM (active)
AC50 (A-375): 7.54 µM (active)
AC50 (Paired box protein Pax-8): 3.98 µM (active)
AC50 [11]: 10.7 µM (active)

COc1cc2c(cc1OC)-c1cc(Nc3ccccc3Br)nc(=O)n1CC2
EC50 [12]: 26.2 µM (active)
EC50 [13]: 13.4 µM (active)
EC50 [14]: > 112 µM (not active)
EC50 [15]: 0.115 µM (active)
IC50 (Hexokinase-1): > 80 µM (inactive)
IC50 (Hexokinase HKDC1): > 80 µM (inactive)

O=C(Nc1nc(-c2ccncc2)cs1)c1ccco1
IC50 [16]: 4.34 µM (active)
AC50 [17]: 2.56 µM (active)
AC50 [18]: 1.92 µM (active)

N#Cc1sc2nc(-c3ccccc3)cc(-c3ccco3)c2c1N
IC50 (CHO): 40.7 µM (inactive)
IC50 [19]: > 128 µM (inactive)

Cc1cc(N2CCNCC2)nc2ccccc12
IC50 [20]: 20.4 µM (active)
